Target: T1, GIRK1-S65A with GIRK2 (UniProt P48542+P48549, S65A)
T1 construct: expressed in transfected cells; host or cells: HEK293 cells
T1 sequence (P48549 1-501 S65A): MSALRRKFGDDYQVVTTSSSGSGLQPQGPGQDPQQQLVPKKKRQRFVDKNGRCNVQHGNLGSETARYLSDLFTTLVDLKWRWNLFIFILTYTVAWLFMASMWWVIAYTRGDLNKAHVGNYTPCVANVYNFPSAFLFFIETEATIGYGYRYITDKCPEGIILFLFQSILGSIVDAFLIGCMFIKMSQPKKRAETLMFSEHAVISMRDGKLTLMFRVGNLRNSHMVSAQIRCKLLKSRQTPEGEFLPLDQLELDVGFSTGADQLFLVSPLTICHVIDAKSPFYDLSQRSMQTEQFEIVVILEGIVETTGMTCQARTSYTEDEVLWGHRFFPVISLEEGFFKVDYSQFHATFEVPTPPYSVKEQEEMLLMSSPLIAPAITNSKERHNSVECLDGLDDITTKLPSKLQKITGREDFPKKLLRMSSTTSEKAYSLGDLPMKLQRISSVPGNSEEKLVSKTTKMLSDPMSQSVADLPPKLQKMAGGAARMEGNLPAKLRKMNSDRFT
T1 sequence (P48542 1-425): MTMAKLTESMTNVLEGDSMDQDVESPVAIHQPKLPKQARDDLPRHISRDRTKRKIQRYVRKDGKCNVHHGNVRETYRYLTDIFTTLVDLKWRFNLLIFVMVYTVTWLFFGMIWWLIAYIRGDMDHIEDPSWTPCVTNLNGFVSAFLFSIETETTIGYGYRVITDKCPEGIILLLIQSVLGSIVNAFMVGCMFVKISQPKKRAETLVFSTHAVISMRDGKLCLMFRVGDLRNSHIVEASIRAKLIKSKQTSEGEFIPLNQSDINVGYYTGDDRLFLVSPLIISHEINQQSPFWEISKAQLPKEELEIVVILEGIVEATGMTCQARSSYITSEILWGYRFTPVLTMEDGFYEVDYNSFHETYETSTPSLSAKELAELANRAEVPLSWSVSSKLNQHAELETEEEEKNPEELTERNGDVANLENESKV
Experiment: 5-ptaseOCRL current inhibition, GIRK1/2 channels containing GIRK1-S65A subunits
Type: cell-based, human GIRK1, mouse GIRK2
Conditions: 10 μM GAT1508
Text: To identify changes in specific channel residue interactions with PIP2 upon ligand binding, the inventors carried out Principal Component Analysis (PCA) in the presence and absence of ML297 and GAT1508. The PCA analysis implicated changes in the slide (or interfacial) helix interactions with PIP2 upon ligand binding. Polar interactions could be formed between GIRK2^FD(Y76) and GIRK4^FD(Y71) with the P(4,5) of PIP2 when ML297 was bound to the same subunit (FIG. 39 top, FIG. 40). In contrast, when GAT1508 was bound this interaction was retained by GIRK2^FD but not GIRK4^FD (FIG. 39 bottom, FIG. 40). The corresponding GIRK1(S65) residue (FIG. 41, highlighted with vertical rectangle) could be serving the same role in stabilizing the phosphoinositol headgroup for interactions with non-ligand binding subunits. As polar residues, both Ser and Tyr could form H-bond interactions with PIP2. […]
Patch-clamp recording: Whole-cell currents were recorded with an Axopatch 200B amplifier (Molecular Devices) controlled via a USB-interface (National Instruments) using WinWCP software (University of Strathclyde). […] The barium-sensitive component of the current, observed when cells were perfused with the high-K^+ buffer, was analyzed and was determined by perfusing 5 mM BaCl2 in the high-K^+ buffer at the end of each experiment. […]

`Cc1cc(NC(=O)Nc2ccc(Br)s2)n(-c2ccccc2)n1` [GAT1508, 1-(5-bromothiophen-2-yl)-3-(3-methyl-1-phenyl-1H-pyrazol-5-yl)urea] was tested, and the “protection of current from 5-ptaseOCRL (in words)” value was “not protected”.

From patent publication US12351574B2, “Selective ligands for modulation of GIRK channels” (Northeastern University, priority 2018, dated 2025)
